The record followed here is patent US8580811B2 (Ligand Pharmaceuticals Incorporated, priority 2005, dated 2013).

In this test the target is T1, human AR (Homo sapiens, UniProt P10275).
T1 construct: expressed in transfected cells; host or cells: COS-1 cells
T1 sequence (P10275 1-920): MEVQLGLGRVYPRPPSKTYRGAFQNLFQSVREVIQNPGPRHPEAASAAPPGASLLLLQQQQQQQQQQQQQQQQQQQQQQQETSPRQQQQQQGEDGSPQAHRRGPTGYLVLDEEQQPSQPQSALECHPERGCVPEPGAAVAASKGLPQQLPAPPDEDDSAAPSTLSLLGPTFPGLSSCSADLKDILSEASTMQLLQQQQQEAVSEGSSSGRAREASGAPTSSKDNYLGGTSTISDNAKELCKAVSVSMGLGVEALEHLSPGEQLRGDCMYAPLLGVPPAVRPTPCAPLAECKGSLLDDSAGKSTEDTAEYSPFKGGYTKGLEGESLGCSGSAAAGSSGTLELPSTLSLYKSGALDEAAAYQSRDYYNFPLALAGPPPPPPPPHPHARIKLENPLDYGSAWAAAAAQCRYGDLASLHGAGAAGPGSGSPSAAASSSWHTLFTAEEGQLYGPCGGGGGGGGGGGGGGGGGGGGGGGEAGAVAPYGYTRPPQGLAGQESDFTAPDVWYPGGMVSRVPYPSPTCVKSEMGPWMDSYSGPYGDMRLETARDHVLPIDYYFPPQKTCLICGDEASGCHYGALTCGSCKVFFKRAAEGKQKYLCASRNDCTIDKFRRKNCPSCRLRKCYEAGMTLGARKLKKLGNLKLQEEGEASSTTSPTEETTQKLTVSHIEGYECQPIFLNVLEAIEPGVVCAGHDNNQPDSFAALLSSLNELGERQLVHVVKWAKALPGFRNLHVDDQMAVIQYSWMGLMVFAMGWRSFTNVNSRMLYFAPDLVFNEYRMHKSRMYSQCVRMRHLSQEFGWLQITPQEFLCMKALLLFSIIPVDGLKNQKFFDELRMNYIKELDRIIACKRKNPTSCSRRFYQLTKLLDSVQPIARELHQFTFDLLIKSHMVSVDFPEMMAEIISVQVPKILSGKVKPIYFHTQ
Nature of the test: IR Binding Assay: whole cell competitive binding of test compounds against 3H-DHT in COS-1 cells transfected with pRShAR. As to the method:
For the whole cell binding assay, COS-1 cells in 96-well microtiter plates including DMEM-10% FBS were transfected as described above with the following plasmid DNA: pRShAR (2 ng/well), pRS-β-Gal (50 ng/well) and pGEM (48 ng/well). Six hours after transfection, media was removed, the cells were washed with PBS and fresh media was added. The next day, the media was changed to DMEM-serum free to remove any endogenous ligand that might be complexed with the receptor in the cells.
After 24 hours in serum-free media, either a saturation analysis to determine the Kd for tritiated dihydrotestosterone (^3H-DHT) on human AR or a competitive binding assay to evaluate the ability of test compounds to compete with ^3H-DHT for AR was performed. […] For the competitive binding assay, media including 1 nM ^3H-DHT and test compounds in concentrations ranging from 10^−10 to 10^−6 M were added to the cells. Three replicates were used for each sample. After three hours at 37° C., an aliquot of the total binding media at each concentration of ^3H-DHT was removed to estimate the amount of free ^3H-DHT. The remaining media was removed, the cells were washed three times with PBS to remove unbound ligand, and cells were lysed with a Triton X-100-based buffer. The lysates were assayed for amount of bound ^3H-DHT and β-Gal activity using a scintillation counter or spectrophotometer, respectively.
For the saturation analyses, the difference between the total binding and the nonspecific binding, normalized by the β-Gal rate, was defined as specific binding. The specific binding was evaluated by Scatchard analysis to determine the Kd for ^3H-DHT. See e.g., D. Rodbard, “Mathematics and statistics of ligand assays: an illustrated guide” In: J. Langon and J. J. Clapp, eds., Ligand Assay, Masson Publishing U.S.A., Inc., New York, pp. 45-99, (1981), the disclosure of which is herein incorporated by reference. For the competition studies, the data was plotted as the amount of ^3H-DHT (% of control in the absence of test compound) remaining over the range of the dose-response curve for a given compound. […] The Ki values were determined by application of the Cheng-Prusoff equation to the IC50 values, where:
[formula] After correcting for non-specific binding, IC50 values were determined. […] The IC50 value was determined graphically from a log-logit plot of the data. The Ki values were determined by application of the Cheng-Prusoff equation to the IC50 values, the labeled ligand concentration and the Kd of the labeled ligand. see e.g., Cheng, Y. C. and Prusoff, W. H. Biochem. Pharmacol. 22:3099 (1973).

Read-outs that look alike come from different tables or passages of the source.

For `CC1c2c(ccc3[nH]c(=O)cc(Cl)c23)N(CC(F)(F)F)C1c1ccc(F)cc1F` (racemic) [Compound 150, (±)-9-Chloro-2-(2,4-difluorophenyl)-1-methyl-3-(2,2,2-trifluoroethyl)-1,2,3,6-tetrahydropyrrolo-[3,2-f]quinolin-7-one], the Ki was more than 10 nM.
Still for that read-out and setting: the figure for `CC1c2c(cc(F)c3[nH]c(=O)cc(Cl)c23)N(CC(F)(F)F)C1C` (racemic) [Compound 151, (±)-9-Chloro-1,2-dimethyl-5-fluoro-3-(2,2,2-trifluoro-ethyl)-1,2,3,6-tetrahydro-pyrrolo[3,2-f]quinolin-7-one] is less than 5 nM; for `CC1c2c(ccc3[nH]c(=O)cc(Cl)c23)N(CC(F)(F)F)C1c1ccc(Cl)cc1` (racemic) [Compound 152, (±)-9-Chloro-2-(4-chlorophenyl)-1-methyl-3-(2,2,2-trifluoroethyl)-1,2,3,6-tetrahydro-pyrrolo[3,2-f]quinolin-7-one] it is more than 10 nM.
On the same count and under the same terms, the same measure for `CC1c2c(ccc3[nH]c(=O)cc(Cl)c23)N(CC(F)(F)F)C1c1cccc(Br)c1` (racemic) [Compound 153, (±)-2-(3-Bromophenyl)-9-chloro-1-methyl-3-(2,2,2-trifluoroethyl)-1,2,3,6-tetrahydro-pyrrolo[3,2-f]quinolin-7-one]: more than 10 nM.
`CC1c2c(ccc3[nH]c(=O)cc(Cl)c23)N(CC(F)(F)F)C1c1cccc([N+](=O)[O-])c1` (racemic) [Compound 154, (±)-9-Chloro-1-methyl-2-(3-nitrophenyl)-3-(2,2,2-trifluoroethyl)-1,2,3,6-tetrahydro-pyrrolo[3,2-f]quinolin-7-one] returned a Ki of more than 10 nM.
On the same count and under the same terms, the figure for `CC1c2c(ccc3[nH]c(=O)cc(Cl)c23)N(CC(F)(F)F)C1c1ccc(O)cc1` (racemic) [Compound 155, (±)-9-Chloro-2-(4-hydroxyphenyl)-1-methyl-3-(2,2,2-trifluoroethyl)-1,2,3,6-tetrahydro-pyrrolo[3,2-f]quinolin-7-one] is more than 10 nM.
For `CC1c2c(ccc3[nH]c(=O)cc(Cl)c23)N(CC(F)(F)F)C1c1ccccc1F` (racemic) [Compound 156, (±)-9-Chloro-2-(2-fluorophenyl)-1-methyl-3-(2,2,2-trifluoroethyl)-1,2,3,6-tetrahydro-pyrrolo[3,2-f]quinolin-7-one], the Ki is less than 5 nM.
For `CC1c2c(ccc3[nH]c(=O)cc(Cl)c23)N(CC(F)(F)F)C1c1ccc(Cl)c(Cl)c1` (racemic) [Compound 157, (±)-9-Chloro-2-(3,4-dichlorophenyl)-1-methyl-3-(2,2,2-trifluoroethyl)-1,2,3,6-tetrahydropyrrolo[3,2-f]quinolin-7-one], the Ki was less than 5 nM.
`CC1c2c(ccc3[nH]c(=O)cc(Cl)c23)N(CC(F)(F)F)C1c1cc(C(F)(F)F)cc(C(F)(F)F)c1` (racemic) [Compound 158, (±)-9-Chloro-2-(3,5-bis(trifluoromethyl)phenyl)-1-methyl-3-(2,2,2-trifluoroethyl)-1,2,3,6-tetrahydropyrrolo[3,2-f]quinolin-7-one] gave a Ki of less than 5 nM.
On the same count and under the same terms, the figure for `CC1c2c(ccc3[nH]c(=O)cc(Cl)c23)N(CC(F)(F)F)C1c1cccc(C(F)(F)F)c1` (racemic) [Compound 159, (±)-9-Chloro-1-methyl-3-(2,2,2-trifluoroethyl)-2-(3-trifluoromethylphenyl)-1,2,3,6-tetrahydropyrrolo[3,2-f]quinolin-7-one] is more than 10 nM; for `CCC1c2c(ccc3[nH]c(=O)cc(Cl)c23)N(CC(F)(F)F)C1c1ccccc1` (racemic) [Compound 160, (±)-9-Chloro-1-ethyl-2-phenyl-3-(2,2,2-trifluoroethyl)-1,2,3,6-tetrahydro-pyrrolo[3,2-f]-quinolin-7-one] it is more than 10 nM; for `CC1c2c(ccc3[nH]c(=O)cc(Cl)c23)N(CC(F)(F)F)C1c1cccs1` (racemic) [Compound 161, (±)-9-Chloro-1-methyl-2-(thien-2-yl)-3-(2,2,2-trifluoroethyl)-1,2,3,6-tetrahydro-pyrrolo[3,2-f]quinolin-7-one] it is less than 5 nM.
On the same count and under the same terms, the same measure for `CCC1c2c(ccc3[nH]c(=O)cc(Cl)c23)N(CC(F)(F)F)C1c1cccs1` (racemic) [Compound 164, (±)-9-Chloro-1-ethyl-2-(thien-2-yl)-3-(2,2,2-trifluoroethyl)-1,2,3,6-tetrahydro-pyrrolo[3,2-f]-quinolin-7-one]: less than 5 nM.
Still for that read-out and setting: the same measure for `CCCC1c2c(ccc3[nH]c(=O)cc(Cl)c23)N(CC(F)(F)F)C1C` (racemic) [Compound 165, (±)-9-Chloro-2-methyl-1-propyl-3-(2,2,2-trifluoroethyl)-1,2,3,6-tetrahydro-pyrrolo[3,2-f]-quinolin-7-one]: less than 5 nM.
`CCC1C(C)c2c(ccc3[nH]c(=O)cc(Cl)c23)N1CC` (racemic) [Compound 166, (±)-9-Chloro-2,3-diethyl-1-methyl-1,2,3,6-tetrahydro-pyrrolo[3,2-f]quinolin-7-one] returned a Ki of more than 10 nM.
Same read-out and setting: the same measure for `CC1c2c(ccc3[nH]c(=O)cc(Cl)c23)N(CC(F)(F)C(F)(F)F)C1C` (racemic) [Compound 167, (±)-9-Chloro-1,2-dimethyl-3-(2,2,3,3,3-pentafluoropropyl)-1,2,3,6-tetrahydro-pyrrolo[3,2-f]-quinolin-7-one]: less than 5 nM; for `CC1c2c(ccc3[nH]c(=O)cc(Cl)c23)N(CC(F)(F)C(F)(F)C(F)(F)F)C1C` (racemic) [Compound 168, (±)-9-Chloro-1,2-dimethyl-3-(2,2,3,3,4,4,4-heptafluorobutyl)-1,2,3,6-tetrahydro-pyrrolo[3,2-f]quinolin-7-one]: more than 10 nM; for `CC1c2c(ccc3[nH]c(=O)cc(Cl)c23)N(CCC(F)(F)F)C1c1ccccc1` (racemic) [Compound 169, (±)-9-Chloro-1-methyl-2-phenyl-3-(3,3,3-trifluoropropyl)-1,2,3,6-tetrahydro-pyrrolo[3,2-f]quinolin-7-one]: less than 5 nM.
On the same count and under the same terms, the same measure for `CCC1C(C)c2c(ccc3[nH]c(=O)cc(Cl)c23)N1CCC(F)(F)F` (racemic) [Compound 170, (±)-9-Chloro-2-ethyl-1-methyl-3-(3,3,3-trifluoropropyl)-1,2,3,6-tetrahydro-pyrrolo[3,2-f]quinolin-7-one]: less than 5 nM; for `CC1c2c(ccc3[nH]c(=O)cc(Cl)c23)N(CC(F)(F)C(F)(F)F)C1c1ccccc1` (racemic) [Compound 171, (±)-9-Chloro-1-methyl-3-(2,2,3,3,3-pentafluoropropyl)-2-phenyl-1,2,3,6-tetrahydro-pyrrolo[3,2-f]quinolin-7-one]: more than 10 nM.
Turning to `CC1c2c(ccc3[nH]c(=O)cc(Cl)c23)NC1c1ccccc1` (racemic) [Compound 172, (±)-9-Chloro-1-methyl-2-phenyl-1,2,3,6-tetrahydro-pyrrolo[3,2-f]quinolin-7-one], where the note is “competition with 1 nM 3H-DHT, transfected COS-1 cells, 3 h at 37° C., Cheng-Prusoff from IC50, read-out: Ki”, the Ki is more than 10 nM.
Consider `CC1c2c(ccc3[nH]c(=O)cc(C(F)(F)F)c23)N(CC(F)(F)C(F)(F)F)C1C` (racemic) [Compound 173, (±)-1,2-Dimethyl-3-(2,2,3,3,3-pentafluoropropyl)-9-trifluoromethyl-1,2,3,6-tetrahydro-pyrrolo[3,2-f]quinolin-7-one], for which the Ki is less than 5 nM.
